Read-outs that look alike come from different tables or passages of the source.
Experiments:
[1] = molecular target: T1, human NaV1.7 (Homo sapiens, UniProt Q15858); assay: Patch voltage clamp electrophysiology assay (EP), NaV1.7; format: cell-based; settings: HEK-293 cells stably expressing NaV1.7 with β1 subunit; whole-cell patch clamp, membrane potential −60 mV (inactivated state)
T1 construct: permanently transfected with an expression vector containing the full-length cDNA coding for the desired human sodium channel α-subunit; expressed in transfected cells; host or cells: HEK-293
Procedure: (§1) The following patch voltage clamp electrophysiology studies were performed on representative compounds of the invention using human embryonic kidney cells (HEK), permanently transfected with an expression vector containing the full-length cDNA coding for the desired human sodium channel α-subunit, grown in culture media containing 10% FBS, 1% PSG, and 0.5 mg/mL G418 at 37° C. with 5% CO2. […] NaV1.7 and NaV1.5 cDNAs (NM_002977 and AC137587; SCN5A, respectively) were stably expressed in HEK-293 cells. The β1 subunit was coexpressed in both the NaV1.7 and NaV1.5 cell lines.
(§2) Sodium currents were measured using the patch clamp technique in the whole-cell configuration using either a PatchXpress automated voltage clamp or manually using an Axopatch 200B (Axon Instruments) or Model 2400 (A-M systems) amplifier. The manual voltage clamp protocol was as follows: Borosilicate glass micropipettes were fire-polished to a tip diameter yielding a resistance of 2-4 Mohms in the working solutions. The pipette was filled with a solution comprised of: 5 mM NaCl, 10 mM CsCl, 120 mM CsF, 0.1 mM CaCl2, 2 mM MgCl2, 10 mM HEPES, 10 mM EGTA; and adjusted to pH 7.2 with CsOH. The external solution had the following composition: 140 mM NaCl, 5 mM KCl, 2 mM CaCl2, 1 mM MgCl2, 10 mM HEPES; and adjusted to pH 7.4 with NaOH. In some studies, the external sodium was reduced by equimolar replacement with choline. Osmolarity in the CsF internal and NaCl external solutions was adjusted to 300 mOsm/kg and 310 mOsm/kg with glucose, respectively. All recordings were performed at ambient temperature in a bath chamber with a volume of 150 μL. Control sodium currents were measured in 0.5% DMSO. Controls and representative compounds of the invention were applied to the recording chamber through a 4-pinch or 8-pinch valve bath perfusion system manufactured by ALA Scientific Instruments.
(§3) Series resistance compensation was applied (60-80%). […] All statistics in this study are given as mean±SD.
(§4) The membrane potential was maintained at a voltage where inactivation of the channel is complete (which was −60 mV for both NaV1.7 and NaV1.5). The voltage is then stepped back to a very negative (Vhold=[…]) voltage for 20 ms and then a test pulse is applied to quantify the compound block. […] The percent decrease in sodium current following wash-on of compound was taken as the percent block of sodium channels.

[2] = molecular target: T2, NaV1.5 (Homo sapiens, UniProt Q14524); assay: Patch voltage clamp electrophysiology assay (EP), NaV1.5; format: cell-based; settings: HEK-293 cells stably expressing NaV1.5 with β1 subunit, whole-cell patch clamp, membrane potential −60 mV (inactivated state)
T2 construct: permanently transfected with an expression vector containing the full-length cDNA coding for the desired human sodium channel α-subunit; expressed in transfected cells; host or cells: HEK-293
Procedure: as §1, §2, §3, §4

[3] = molecular target: T3, hNav1.7 (Homo sapiens, UniProt Q15858); assay: Tritiated compound binding (LBA) to membranes from cells expressing hNav1.7 and the β1 subunit, competitive binding; settings: competitive binding vs 100 pM [3H]compound, 18 h, room temperature, membranes with hNav1.7 and β1 subunit
T3 construct: expressed in transfected cells
Method in brief: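 Competitive displacement of 100 pM [3H]compound (tritiated methyl analogue of formula (I)) from hNav1.7/β1 membranes, 18 h at room temperature in NaCl/Tris pH 7.4 buffer containing 0.01% BSA. 1 μM unlabeled compound set non-specific binding. Bound label quantified by scintillation after filtration; 4-parameter fit gave IC50.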

[4] = human, HEK-293 cells stably expressing human NaV1.5 with β1 subunit, pH 7.4

T1 sequence (Q15858 1-1977 isoform Q15858-3): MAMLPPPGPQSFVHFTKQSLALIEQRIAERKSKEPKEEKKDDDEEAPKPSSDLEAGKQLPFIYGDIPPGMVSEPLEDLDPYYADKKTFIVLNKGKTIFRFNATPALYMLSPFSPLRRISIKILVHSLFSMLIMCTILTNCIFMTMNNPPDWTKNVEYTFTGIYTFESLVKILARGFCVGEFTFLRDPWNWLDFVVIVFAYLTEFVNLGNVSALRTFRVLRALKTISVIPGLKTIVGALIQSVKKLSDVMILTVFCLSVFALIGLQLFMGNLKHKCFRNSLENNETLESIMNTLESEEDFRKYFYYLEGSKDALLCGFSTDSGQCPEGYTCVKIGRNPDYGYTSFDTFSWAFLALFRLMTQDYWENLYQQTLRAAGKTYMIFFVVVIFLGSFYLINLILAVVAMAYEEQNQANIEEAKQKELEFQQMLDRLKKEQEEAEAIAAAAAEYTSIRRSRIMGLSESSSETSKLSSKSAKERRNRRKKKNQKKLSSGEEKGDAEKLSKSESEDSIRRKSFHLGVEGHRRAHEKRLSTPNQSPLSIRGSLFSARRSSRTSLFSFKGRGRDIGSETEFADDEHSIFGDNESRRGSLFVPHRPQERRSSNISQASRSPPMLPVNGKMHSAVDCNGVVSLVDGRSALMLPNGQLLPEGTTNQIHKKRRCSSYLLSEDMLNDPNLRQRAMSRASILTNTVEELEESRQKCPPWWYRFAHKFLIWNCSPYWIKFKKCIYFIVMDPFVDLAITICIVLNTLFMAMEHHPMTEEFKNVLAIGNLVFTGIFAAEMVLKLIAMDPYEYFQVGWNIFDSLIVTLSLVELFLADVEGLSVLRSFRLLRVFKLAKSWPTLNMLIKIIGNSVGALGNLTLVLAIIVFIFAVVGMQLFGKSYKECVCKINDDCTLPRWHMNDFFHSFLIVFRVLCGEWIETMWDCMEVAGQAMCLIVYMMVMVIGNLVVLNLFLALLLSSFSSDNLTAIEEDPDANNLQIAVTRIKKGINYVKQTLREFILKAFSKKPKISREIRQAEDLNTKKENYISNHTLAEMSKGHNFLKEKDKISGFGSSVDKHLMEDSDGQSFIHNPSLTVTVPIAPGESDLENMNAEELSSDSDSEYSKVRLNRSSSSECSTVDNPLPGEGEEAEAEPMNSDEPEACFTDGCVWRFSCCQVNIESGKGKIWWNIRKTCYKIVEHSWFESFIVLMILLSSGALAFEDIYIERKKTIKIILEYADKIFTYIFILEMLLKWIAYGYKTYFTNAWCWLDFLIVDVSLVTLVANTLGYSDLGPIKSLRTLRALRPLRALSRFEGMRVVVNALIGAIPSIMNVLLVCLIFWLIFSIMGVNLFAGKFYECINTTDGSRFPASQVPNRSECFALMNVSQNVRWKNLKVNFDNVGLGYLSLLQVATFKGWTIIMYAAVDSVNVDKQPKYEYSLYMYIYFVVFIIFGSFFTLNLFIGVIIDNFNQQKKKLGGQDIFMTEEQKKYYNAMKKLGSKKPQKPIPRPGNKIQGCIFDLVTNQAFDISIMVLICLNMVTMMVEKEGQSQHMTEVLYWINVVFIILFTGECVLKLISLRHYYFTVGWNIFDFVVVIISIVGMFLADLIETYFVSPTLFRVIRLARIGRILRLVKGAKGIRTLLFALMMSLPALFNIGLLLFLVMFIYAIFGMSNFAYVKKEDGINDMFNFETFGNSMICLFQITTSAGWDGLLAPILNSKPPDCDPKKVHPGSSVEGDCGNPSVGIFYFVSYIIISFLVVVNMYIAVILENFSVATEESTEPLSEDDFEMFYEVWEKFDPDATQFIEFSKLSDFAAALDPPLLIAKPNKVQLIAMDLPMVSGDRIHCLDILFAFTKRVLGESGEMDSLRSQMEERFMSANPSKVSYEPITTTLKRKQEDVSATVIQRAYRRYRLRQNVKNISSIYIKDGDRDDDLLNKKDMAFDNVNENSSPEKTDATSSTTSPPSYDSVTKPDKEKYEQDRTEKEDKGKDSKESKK
T1 sequence (Q07699 19-218 partner): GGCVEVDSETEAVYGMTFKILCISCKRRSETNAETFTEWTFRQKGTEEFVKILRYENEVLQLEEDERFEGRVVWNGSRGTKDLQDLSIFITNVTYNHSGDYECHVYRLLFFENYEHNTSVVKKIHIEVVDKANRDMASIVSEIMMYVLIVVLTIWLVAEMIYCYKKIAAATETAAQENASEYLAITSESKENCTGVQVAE
T3 sequence (Q15858 1-1977 isoform Q15858-3): as the sequence (Q15858 1-1977 isoform Q15858-3) above
T3 sequence (Q07699 19-218 partner): as the sequence (Q07699 19-218 partner) above
T2 sequence (Q14524 whole entry): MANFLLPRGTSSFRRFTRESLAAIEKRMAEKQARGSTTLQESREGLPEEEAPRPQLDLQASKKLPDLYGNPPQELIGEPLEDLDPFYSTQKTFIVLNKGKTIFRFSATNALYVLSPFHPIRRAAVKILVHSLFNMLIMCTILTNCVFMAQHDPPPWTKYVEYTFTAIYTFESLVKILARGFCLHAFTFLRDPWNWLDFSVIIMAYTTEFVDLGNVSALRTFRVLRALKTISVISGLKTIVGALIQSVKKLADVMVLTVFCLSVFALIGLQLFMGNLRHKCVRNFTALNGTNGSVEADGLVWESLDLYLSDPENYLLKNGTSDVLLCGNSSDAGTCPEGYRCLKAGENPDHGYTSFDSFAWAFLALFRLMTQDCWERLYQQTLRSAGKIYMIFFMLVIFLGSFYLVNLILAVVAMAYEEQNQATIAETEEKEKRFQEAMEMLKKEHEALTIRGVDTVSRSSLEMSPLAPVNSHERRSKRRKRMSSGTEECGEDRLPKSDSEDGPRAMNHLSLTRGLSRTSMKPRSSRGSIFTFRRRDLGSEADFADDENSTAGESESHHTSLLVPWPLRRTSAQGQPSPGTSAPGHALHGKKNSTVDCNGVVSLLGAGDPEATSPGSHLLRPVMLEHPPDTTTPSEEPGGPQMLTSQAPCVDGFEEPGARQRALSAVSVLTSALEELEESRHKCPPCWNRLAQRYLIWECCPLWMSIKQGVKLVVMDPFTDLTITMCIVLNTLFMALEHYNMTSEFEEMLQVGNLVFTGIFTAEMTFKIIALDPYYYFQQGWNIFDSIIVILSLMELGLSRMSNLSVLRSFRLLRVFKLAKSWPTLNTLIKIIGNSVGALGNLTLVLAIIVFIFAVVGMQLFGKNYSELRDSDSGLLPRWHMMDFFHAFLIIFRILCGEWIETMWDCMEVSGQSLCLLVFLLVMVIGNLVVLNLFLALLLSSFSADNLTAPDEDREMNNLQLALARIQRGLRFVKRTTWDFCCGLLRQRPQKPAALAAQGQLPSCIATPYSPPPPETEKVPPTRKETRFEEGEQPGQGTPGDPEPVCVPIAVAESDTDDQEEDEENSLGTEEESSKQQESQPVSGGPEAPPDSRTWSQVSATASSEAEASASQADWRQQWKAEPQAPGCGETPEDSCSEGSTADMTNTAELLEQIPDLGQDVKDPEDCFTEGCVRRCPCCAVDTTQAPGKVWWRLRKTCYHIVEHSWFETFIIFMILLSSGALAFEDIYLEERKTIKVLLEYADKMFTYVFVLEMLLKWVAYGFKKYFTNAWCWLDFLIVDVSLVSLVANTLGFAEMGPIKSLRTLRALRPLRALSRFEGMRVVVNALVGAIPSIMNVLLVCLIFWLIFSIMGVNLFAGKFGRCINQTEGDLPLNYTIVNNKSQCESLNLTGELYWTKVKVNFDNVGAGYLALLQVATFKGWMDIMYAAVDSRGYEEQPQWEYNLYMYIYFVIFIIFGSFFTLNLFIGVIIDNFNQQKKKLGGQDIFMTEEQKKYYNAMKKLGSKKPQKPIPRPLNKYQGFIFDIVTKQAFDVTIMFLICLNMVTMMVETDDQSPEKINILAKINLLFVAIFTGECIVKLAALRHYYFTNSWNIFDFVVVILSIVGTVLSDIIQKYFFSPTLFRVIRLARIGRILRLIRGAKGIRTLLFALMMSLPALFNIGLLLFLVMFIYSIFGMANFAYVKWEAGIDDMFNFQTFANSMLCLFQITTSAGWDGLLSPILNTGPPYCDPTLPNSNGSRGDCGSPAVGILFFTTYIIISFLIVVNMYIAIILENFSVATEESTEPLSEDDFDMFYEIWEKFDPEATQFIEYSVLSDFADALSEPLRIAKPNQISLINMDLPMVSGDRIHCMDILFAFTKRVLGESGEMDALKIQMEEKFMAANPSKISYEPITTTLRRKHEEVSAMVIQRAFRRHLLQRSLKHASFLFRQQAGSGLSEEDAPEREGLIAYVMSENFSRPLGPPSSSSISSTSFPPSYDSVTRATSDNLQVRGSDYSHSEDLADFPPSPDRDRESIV

| Structure (SMILES) | IC50 [1] [µM] | IC50 ([2]; read-out: Nav1.5) [µM] | IC50 [3] [µM] | IC50 [2, 4] [µM] |
| --- | --- | --- | --- | --- |
| O=C(O)[C@@H]1CCCN1C(=O)c1cc(C2CC2)c(OCC23CC4CC(CC(C4)C2)C3)cc1F [Example 1, (S)-1-(4-(adamantan-1-ylmethoxy)-5-cyclopropyl-2-fluorobenzoyl)pyrrolidine-2-carboxylic acid] | 0.0135 | 3.5 | 0.0196 | – |
| O=C(NC1(C(=O)O)CC1)c1cc(C2CC2)c(OCC23CC4CC(CC(C4)C2)C3)cc1F [Example 6, 1-(4-(adamantan-1-ylmethoxy)-5-cyclopropyl-2-fluorobenzamido)-cyclopropanecarboxylic acid] | 0.532 | 2.12 | 3.58 | – |
| C[C@H](NC(=O)c1cc(C2CC2)c(OCC23CC4CC(CC(C4)C2)C3)cc1F)C(=O)O [Example 11, (S)-2-(4-(adamantan-1-ylmethoxy)-5-cyclopropyl-2-fluorobenzamido)propanoic acid] | 0.0361 | 2.19 | 0.2 | – |
| O=C(O)[C@H]1CSCN1C(=O)c1cc(C2CC2)c(OCC23CC4CC(CC(C4)C2)C3)cc1F [Example 50, (4S)-3-[4-(1-adamantylmethoxy)-5-cyclopropyl-2-fluoro-benzoyl]thiazolidine-4-carboxylic acid] | 0.34 | 19.4 | 0.03 | – |
| C[C@@]1(C(=O)O)CCCN1C(=O)c1cc(C2CC2)c(OCC23CC4CC(CC(C4)C2)C3)cc1F [Example 51, (S)-1-(4-((adamantan-1-yl)methoxy)-5-cyclopropyl-2-fluorobenzoyl)-2-methylpyrrolidine-2-carboxylic acid] | 0.92 | 14 | 0.1 | – |
| CC(C)(C)[C@H](NC(=O)c1cc(C2CC2)c(OCC23CC4CC(CC(C4)C2)C3)cc1F)C(=O)O [Example 52, (S)-2-(4-(adamantan-1-ylmethoxy)-5-cyclopropyl-2-fluorobenzamido)-3,3-dimethylbutanoic acid] | 1.4 | 7.5 | 0.098 | – |
| O=C(N[C@H](C(=O)O)C1CC1)c1cc(C2CC2)c(OCC2CCN(C(c3cc(Cl)cc(Cl)c3)C(F)(F)F)CC2)cc1F (stereo partly drawn) [Example 53, (2S)-2-cyclopropyl-2-(5-cyclopropyl-4-((1-(1-(3,5-dichlorophenyl)-2,2,2-trifluoroethyl)piperidin-4-yl)methoxy)-2-fluorobenzamido)acetic acid] | 2 | 14 | 0.017 | – |
| O=C(c1cc(C2CC2)c(OCC23CC4CC(CC(C4)C2)C3)cc1F)N1CCC[C@H]1c1nnn[nH]1 [Example 54, ((S)-2-(1H-tetrazol-5-yl)pyrrolidin-1-yl)(4-(adamantan-1-ylmethoxy)-5-cyclopropyl-2-fluorophenyl)methanone] | 0.62 | 9.7 | 0.058 | – |
| CC1(COc2cc(F)c(C(=O)N3CCC[C@H]3C(=O)O)cc2C2CC2)CCC2(CC1)CC2(F)F (stereo partly drawn) [Example 55, (5-cyclopropyl-4-((1,1-difluoro-6-methylspiro[2.5]octan-6-yl)methoxy)-2-fluorobenzoyl)-L-proline] | 0.79 | 29 | 0.25 | – |
| O=C(O)[C@@H]1CCCN1C(=O)c1cc(C2CC2)c(OCC23CCC(F)(CC2)CC3)cc1F [Example 56, (5-cyclopropyl-2-fluoro-4-((4-fluorobicyclo[2.2.2]octan-1-yl)methoxy)benzoyl)-L-proline] | 1.8 | – | 0.41 | ≥ 30 |
| C[C@@H](O)[C@H](NC(=O)c1cc(C2CC2)c(OCC23CC4CC(CC(C4)C2)C3)cc1F)C(=O)O [Example 57] | 2.1 | 23 | 0.43 | – |
| CC1(COc2cc(F)c(C(=O)N3CCC[C@H]3C(=O)O)cc2C2CC2)CCC2(CC1)CC2 [Example 58, (5-cyclopropyl-2-fluoro-4-((6-methylspiro[2.5]octan-6-yl)-methoxy)benzoyl)-L-proline] | 0.63 | 21 | 0.083 | – |
| CO[C@@H]1C[C@@H](C(=O)O)N(C(=O)c2cc(C3CC3)c(OCC34CC5CC(CC(C5)C3)C4)cc2F)C1 [Example 59, (2S,4R)-1-(4-((adamantan-1-yl)methoxy)-5-cyclopropyl-2-fluorobenzoyl)-4-methoxypyrrolidine-2-carboxylic acid] | 0.55 | 26 | 0.034 | – |
| O=C(O)[C@@H]1C[C@H]2C[C@H]2N1C(=O)c1cc(C2CC2)c(OCC23CC4CC(CC(C4)C2)C3)cc1F [Example 60, (1R, 3S, 5R)-2-(4-((adamantan-1-yl)methoxy)-5-cyclopropyl-2-fluorobenzoyl)-2-azabicyclo[3.1.0]hexane-3-carboxylic acid] | 1.9 | 13 | 0.34 | – |
| O=C(O)[C@@H]1[C@H](O)CCN1C(=O)c1cc(C2CC2)c(OCC23CC4CC(CC(C4)C2)C3)cc1F [Example 62, (2S, 3R)-1-(4-((adamantan-1-yl)methoxy)-5-cyclopropyl-2-fluorobenzoyl)-3-hydroxypyrrolidine-2-carboxylic acid] | 1.1 | 28 | 0.16 | – |
| O=C(O)[C@@H]1[C@H](F)CCN1C(=O)c1cc(C2CC2)c(OCC23CC4CC(CC(C4)C2)C3)cc1F [Example 63, (2R, 3R)-1-(4-((adamantan-1-yl)methoxy)-5-cyclopropyl-2-fluorobenzoyl)-3-fluoropyrrolidine-2-carboxylic acid] | 0.98 | 18 | 0.17 | – |
| O=C(O)[C@@H]1[C@@H](F)CCN1C(=O)c1cc(C2CC2)c(OCC23CC4CC(CC(C4)C2)C3)cc1F [Example 64, (2R,3S)-1-(4-((adamantan-1-yl)methoxy)-5-cyclopropyl-2-fluorobenzoyl)-3-fluoropyrrolidine-2-carboxylic acid] | 0.79 | 8.5 | 0.06 | – |
| O=C(O)C1CCN(C(=O)c2cc(C3CC3)c(OCC34CC5CC(CC(C5)C3)C4)cc2F)C1 (stereo not drawn) [Example 65, 1-(4-(adamantan-1-ylmethoxy)-5-cyclopropyl-2-fluorobenzoyl)pyrrolidine-3-carboxylic acid] | 5.3 | 23 | ≥ 10 | – |
| CC(C)[C@H](NC(=O)c1cc(C2CC2)c(OCC23CC4CC(CC(C4)C2)C3)cc1F)C(=O)O [Example 66, (S)-2-(4-(adamantan-1-ylmethoxy)-5-cyclopropyl-2-fluorobenzamido)-3-methylbutanoic acid] | 0.8 | 8.1 | 0.07 | – |
| CC(C)[C@@H](C(=O)O)N(C)C(=O)c1cc(C2CC2)c(OCC23CC4CC(CC(C4)C2)C3)cc1F [Example 67, N-(4-(adamantan-1-ylmethoxy)-5-cyclopropyl-2-fluorobenzoyl)-N-methyl-L-valine] | 3 | 7.5 | 1 | – |
| CC1(C)CCC(COc2cc(F)c(C(=O)N3CCC[C@H]3C(=O)O)cc2C2CC2)CC1 [Example 68, (S)-1-(5-cyclopropyl-4-((4,4-dimethylcyclohexyl)methoxy)-2-fluorobenzoyl)pyrrolidine-2-carboxylic acid] | 0.52 | 19 | 0.1 | – |
| O=C(O)[C@@H]1CCCN1C(=O)c1cc(C2CC2)c(OCC23CCCCC2C3)cc1F (stereo partly drawn) [Example 69, (4-(bicyclo[4.1.0]heptan-1-ylmethoxy)-5-cyclopropyl-2-fluorobenzoyl)-L-proline] | 0.52 | – | 0.17 | ≥ 30 |
| O=C(O)[C@@H]1CCCN1C(=O)c1cc(C2CC2)c(OC2C3CC4CC(C3)CC2C4)cc1F (stereo partly drawn) [Example 70, (S)-1-(4-(adamantan-2-yloxy)-5-cyclopropyl-2-fluorobenzoyl)pyrrolidine-2-carboxylic acid] | 1.6 | – | 0.31 | ≥ 30 |

Source: patent US10125098B2, “Therapeutic compounds and methods of use thereof” (GENENTECH, INC., priority 2014, dated 2018)
